Data on ten compounds can be found in US10633419B2, “Immunomodulators” (BRISTOL-MYERS SQUIBB COMPANY, priority 2014, dated 2020).

Structures are written as SMILES. Positions of bridges follow the written chain, without caps; N, C: chain ends. Non-standard residues stand in square brackets, D forms with d. Residues, ends and D or L forms follow the SMILES beside them. Groups on a side chain read outwards from the residue. *: point of attachment. X17 = COCCOCCOCCOCCOCCOCCOCCOCCOCCOCCOCCOCCOCCOCCOCCOCCOCCOCCOCCOCCOCCOCCOCCOCCOCCOCCOCCOCCOCCOCCOCCOCCOCCOCCOCCOCCOCCOCCOCCOCCOCCOCCOCCOCCOCCOCCOCCOCCOCCC(=O)*; CH3O(CH2CH2O)11CH2CH2CO = COCCOCCOCCOCCOCCOCCOCCOCCOCCOCCOCCOCCC(=O)*; Phe(3,4,5-F3) = N[C@@H](Cc1cc(F)c(F)c(F)c1)C(=O)O; d(cisHyp) = O=C(O)[C@H]1C[C@@H](O)CN1; Stearoyl = CCCCCCCCCCCCCCCCCC(=O)*; Hyp = O=C(O)[C@@H]1C[C@@H](O)CN1; NMeF = CN[C@@H](Cc1ccccc1)C(=O)O; X30 = O=C1NC2CSC(CCCCC(=O)*)C2N1; NMeE = CN[C@@H](CCC(=O)O)C(=O)O; Undecanoyl = CCCCCCCCCCC(=O)*; NMeNle = CCCC[C@H](NC)C(=O)O; PEG4 = NCCOCCOCCOCCOCCC(=O)O; dPip = O=C(O)[C@H]1CCCCN1; NMeA = CN[C@@H](C)C(=O)O; Dab = NCC[C@H](N)C(=O)O; Sar = CNCC(=O)O

For one assay, the target named is T1, PD-L1 (Homo sapiens, UniProt Q9NZQ7).
T1 construct: hPDL1(19-239)-TVMV-His; made in house; host or cells: HEK293T
T1 sequence (Q9NZQ7 with tags, fused parts or gaps): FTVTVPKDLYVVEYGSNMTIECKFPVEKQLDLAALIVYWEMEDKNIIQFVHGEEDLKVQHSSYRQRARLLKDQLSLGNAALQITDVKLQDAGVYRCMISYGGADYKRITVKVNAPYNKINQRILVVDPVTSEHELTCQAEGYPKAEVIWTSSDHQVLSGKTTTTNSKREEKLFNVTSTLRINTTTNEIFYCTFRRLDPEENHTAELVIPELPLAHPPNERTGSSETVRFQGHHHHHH
The assay can be described thus: PD-1/PD-L1 Homogenous Time-Resolved Fluorescence (HTRF) binding assay (PD-1-Ig/PD-L1-His). As to conditions: inhibition of PD-1-Ig binding to PD-L1-TVMV-His; value given as number; read-out: HTRF IC50. The text has this:
The ability of the macrocyclic peptides of the present disclosure to bind to PD-L1 was investigated using a PD-1/PD-L1 Homogenous Time-Resolved Fluorescence (HTRF) binding assay.
Homogenous Time-Resolved Fluorescence (HTRF) Assays of Binding of Soluble PD-1 to Soluble PD-L1. Soluble PD-1 and soluble PD-L1 refers to proteins with carboxyl-end truncations that remove the transmembrane-spanning regions and are fused to heterologous sequences, specifically the Fc portion of the human immunoglobuling G sequence (Ig) or the hexahistidine epitope tag (His). All binding studies were performed in an HTRF assay buffer consisting of dPBS supplemented with 0.1% (w/v) bovine serum albumin and 0.05% (v/v) Tween-20. For the PD-1-Ig/PD-L1-His binding assay, inhibitors were pre-incubated with PD-L1-His (10 nM final) for 15 m in 4 μl of assay buffer, followed by addition of PD-1-Ig (20 nM final) in 1 μl of assay buffer and further incubation for 15m. PD-L1 fusion proteins from either human, cynomologous macaques, mouse, or other species were used. HTRF detection was achieved using europium crypate-labeled anti-Ig monoclonal antibody (1 nM final) and allophycocyanin (APC) labeled anti-His monoclonal antibody (20 nM final). Antibodies were diluted in HTRF detection buffer and 5 μl was dispensed on top of binding reaction. The reaction was allowed to equilibrate for 30 minutes and signal (665 nm/620 nm ratio) was obtained using an EnVision fluorometer. Additional binding assays were established between PD-1-Ig/PD-L2-His (20 and 5 nM, respectively), CD80-His/PD-L1-Ig (100 and 10 nM, respectively) and CD80-His/CTLA4-Ig (10 and 5 nM, respectively). Binding/competition studies between biotinylated Compound No. 71 and human PD-L1-His were performed as follows. Macrocyclic peptide inhibitors were pre-incubated with PD-L1-His (10 nM final) for 60 minutes in 4 μl of assay buffer followed by addition of biotinylated Compound No. 71 (0.5 nM final) in 1 μl of assay buffer. Binding was allowed to equilibrate for 30 minutes followed by addition of europium crypated labeled Streptavidin (2.5 pM final) and APC-labeled anti-His (20 nM final) in 5 μl of HTRF buffer. The reaction was allowed to equilibrate for 30m and signal (665 nm/620 nm ratio) was obtained using an EnVision fluorometer.
Recombinant Proteins. Carboxyl-truncated human PD-1 (amino acids 25-167) with a C-terminal human Ig epitope tag [hPD-1 (25-167)-3S-IG] and human PD-L1 (amino acids 18-239) with a C-terminal His epitope tag [hPD-L1(19-239)-tobacco vein mottling virus protease cleavage site (TVMV)-His] were expressed in HEK293T cells and purified sequentially by recombinant Protein A affinity chromatography and size exclusion chromatography. Human PD-L2-His (Sino Biologicals), CD80-His (Sino Biologicals), CTLA4-Ig (RnD Systems) were all obtained through commercial sources.
(In general: In TR-FRET formats the signal depends on donor and acceptor labels being close together.)
Usually IC50 stands for the point on the concentration scale where inhibition reaches its midpoint. With `CCCC[C@H]1C(=O)N2C[C@H](O)C[C@@H]2C(=O)N[C@@H](CC(=O)O)C(=O)N[C@@H](C(C)C)C(=O)N(C)[C@@H](Cc2ccccc2)C(=O)N[C@@H](Cc2ccc(O)cc2)C(=O)N2CCCC[C@@H]2C(=O)N[C@@H](Cc2c[nH]c3ccccc23)C(=O)N[C@@H](Cc2ccc(O)cc2)C(=O)N[C@@H](CC(C)C)C(=O)N[C@H](C(=O)NCC(=O)NCC(=O)NCC(=O)N[C@@H](CCCCNC(=O)CCOCCOCCOCCOCCOCCOCCOCCOCCOCCOCCOCCOCCOCCOCCOCCOCCOCCOCCOCCOCCOCCOCCOCCOCCOCCOCCOCCOCCOCCOCCOCCOCCOCCOCCOCCOCCOCCOCCOCCOCCOCCOCCOCCOCCOCCOCCOCCOCCOC)C(N)=O)CSCC(=O)N[C@@H](Cc2cc(F)c(F)c(F)c2)C(=O)N(C)[C@@H](Cc2ccccc2)C(=O)N1C` [Example 3625] ({CH2CO}-[Phe(3,4,5-F3)][NMeF][NMeNle][d(cisHyp)]DV[NMeF]Y[dPip]WYLCGGGK(X17)-NH2; thioether N-13), the IC50 stood at 6.3 nM.

In the case of `CCCCCCCCCCCCCCCCCC(=O)NCCCC[C@H](NC(=O)[C@@H]1CSCC(=O)N[C@@H](Cc2ccc(O)cc2)C(=O)N(C)[C@@H](C)C(=O)N[C@@H](CC(N)=O)C(=O)N2CCC[C@H]2C(=O)N[C@@H](CCN)C(=O)N[C@@H](CC(C)C)C(=O)N2C[C@H](O)C[C@H]2C(=O)N[C@@H](Cc2c[nH]c3ccccc23)C(=O)N[C@@H](CO)C(=O)N[C@@H](Cc2c[nH]c3ccccc23)C(=O)N(C)[C@@H](CCCC)C(=O)N(C)[C@@H](CCCC)C(=O)N[C@@H](CCCNC(=N)N)C(=O)N1)C(N)=O` [Example 11001] ({CH2CO}-Y[NMeA]NP[Dab]L[Hyp]WSW[NMeNle][NMeNle]RCK(Stearoyl)-NH2; thioether N-14), the concentration for half-maximal inhibition (IC50) is 952 nM. On to `CCCCCCCCCCC(=O)NCCCC[C@H](NC(=O)[C@H](CC(=O)O)NC(=O)CNC(=O)CNC(=O)CNC(=O)[C@@H]1CSCC(=O)N[C@@H](Cc2ccc(O)cc2)C(=O)N(C)[C@@H](C)C(=O)N[C@@H](CC(N)=O)C(=O)N2CCC[C@H]2C(=O)N[C@@H](CCN)C(=O)N[C@@H](CC(C)C)C(=O)N2C[C@H](O)C[C@H]2C(=O)N[C@@H](Cc2c[nH]c3ccccc23)C(=O)N[C@@H](CO)C(=O)N[C@@H](Cc2c[nH]c3ccccc23)C(=O)N(C)[C@@H](CCCC)C(=O)N(C)[C@@H](CCCC)C(=O)N[C@@H](CCCNC(=N)N)C(=O)N1)C(N)=O` [Example 11003] ({CH2CO}-Y[NMeA]NP[Dab]L[Hyp]WSW[NMeNle][NMeNle]RCGGGDK(Undecanoyl)-NH2; thioether N-14), for which the IC50 came to 54.6 nM.

The same assay, now with this note: inhibition of PD-1-Ig binding to PD-L1-TVMV-His; value given as range class; read-out: HTRF IC50.
Regarding `CCCC[C@H]1C(=O)N2C[C@H](O)C[C@@H]2C(=O)N[C@@H](CC(=O)O)C(=O)N[C@@H](C(C)C)C(=O)N(C)[C@@H](Cc2ccccc2)C(=O)N[C@@H](Cc2ccc(O)cc2)C(=O)N(C)[C@@H](CCC(=O)O)C(=O)N[C@@H](Cc2c[nH]c3ccccc23)C(=O)N[C@@H](Cc2ccc(O)cc2)C(=O)N[C@@H](CC(C)C)C(=O)N[C@H](C(=O)NCC(=O)NCC(=O)NCC(=O)N[C@@H](CCCCN)C(N)=O)CSCC(=O)N[C@@H](Cc2cc(F)c(F)c(F)c2)C(=O)N(C)[C@@H](Cc2ccccc2)C(=O)N1C` [Example 3214] ({CH2CO}-[Phe(3,4,5-F3)][NMeF][NMeNle][d(cisHyp)]DV[NMeF]Y[NMeE]WYLCGGGK-NH2; thioether N-13), the IC50 was 0.3 to 9.9 nM. Same read-out and setting: the result for `CCCC[C@H]1C(=O)N(C)CC(=O)N[C@@H](CC(=O)O)C(=O)N[C@@H](C(C)C)C(=O)N(C)[C@@H](Cc2ccccc2)C(=O)N[C@@H](Cc2ccc(O)cc2)C(=O)N(C)[C@@H](CCC(=O)O)C(=O)N[C@@H](Cc2c[nH]c3ccccc23)C(=O)N[C@@H](Cc2ccc(O)cc2)C(=O)N[C@@H](CC(C)C)C(=O)N[C@H](C(=O)NCC(=O)NCC(=O)NCC(=O)N[C@@H](CCCCN)C(N)=O)CSCC(=O)N[C@@H](Cc2ccccc2)C(=O)N(C)[C@@H](Cc2ccccc2)C(=O)N1C` [Example 3619] ({CH2CO}-F[NMeF][NMeNle][Sar]DV[NMeF]Y[NMeE]WYLCGGGK-NH2; thioether N-13) reads 0.3 to 9.9 nM; that for `CCCC[C@H]1C(=O)N(C)CC(=O)N[C@@H](CC(=O)O)C(=O)N[C@@H](C(C)C)C(=O)N(C)[C@@H](Cc2ccccc2)C(=O)N[C@@H](Cc2ccc(O)cc2)C(=O)N(C)[C@@H](CCC(=O)O)C(=O)N[C@@H](Cc2c[nH]c3ccccc23)C(=O)N[C@@H](Cc2ccc(O)cc2)C(=O)N[C@@H](CC(C)C)C(=O)N[C@H](C(=O)NCC(=O)NCC(=O)NCC(=O)N[C@@H](CCCCNC(=O)CCOCCOCCOCCOCCOCCOCCOCCOCCOCCOCCOCCOC)C(N)=O)CSCC(=O)N[C@@H](Cc2ccccc2)C(=O)N(C)[C@@H](Cc2ccccc2)C(=O)N1C` [Example 3621] ({CH2CO}-F[NMeF][NMeNle][Sar]DV[NMeF]Y[NMeE]WYLCGGGK(CH3O(CH2CH2O)11CH2CH2CO)-NH2; thioether N-13), 10 to 99 nM.

Regarding `CCCC[C@H]1C(=O)N2C[C@H](O)C[C@@H]2C(=O)N[C@@H](CC(=O)O)C(=O)N[C@@H](C(C)C)C(=O)N(C)[C@@H](Cc2ccccc2)C(=O)N[C@@H](Cc2ccc(O)cc2)C(=O)N2CCCC[C@@H]2C(=O)N[C@@H](Cc2c[nH]c3ccccc23)C(=O)N[C@@H](Cc2ccc(O)cc2)C(=O)N[C@@H](CC(C)C)C(=O)N[C@H](C(=O)NCC(=O)NCC(=O)NCC(=O)N[C@@H](CCCCN)C(N)=O)CSCC(=O)N[C@@H](Cc2cc(F)c(F)c(F)c2)C(=O)N(C)[C@@H](Cc2ccccc2)C(=O)N1C` [Example 3623] ({CH2CO}-[Phe(3,4,5-F3)][NMeF][NMeNle][d(cisHyp)]DV[NMeF]Y[dPip]WYLCGGGK-NH2; thioether N-13), the IC50 fell in the range of 0.3 to 9.9 nM. On the same count and under the same terms, as for `CCCC[C@H]1C(=O)N2C[C@H](O)C[C@@H]2C(=O)N[C@@H](CC(=O)O)C(=O)N[C@@H](C(C)C)C(=O)N(C)[C@@H](Cc2ccccc2)C(=O)N[C@@H](Cc2ccc(O)cc2)C(=O)N2CCCC[C@@H]2C(=O)N[C@@H](Cc2c[nH]c3ccccc23)C(=O)N[C@@H](Cc2ccc(O)cc2)C(=O)N[C@@H](CC(C)C)C(=O)N[C@H](C(=O)NCC(=O)NCC(=O)NCC(=O)N[C@@H](CCCCNC(=O)CCOCCOCCOCCOCCOCCOCCOCCOCCOCCOCCOCCOC)C(N)=O)CSCC(=O)N[C@@H](Cc2cc(F)c(F)c(F)c2)C(=O)N(C)[C@@H](Cc2ccccc2)C(=O)N1C` [Example 3624] ({CH2CO}-[Phe(3,4,5-F3)][NMeF][NMeNle][d(cisHyp)]DV[NMeF]Y[dPip]WYLCGGGK(CH3O(CH2CH2O)11CH2CH2CO)-NH2; thioether N-13), the figure is 0.3 to 9.9 nM. On the same count and under the same terms, as for `CCCC[C@H]1C(=O)N2C[C@H](O)C[C@@H]2C(=O)N[C@@H](CC(=O)O)C(=O)N[C@@H](C(C)C)C(=O)N(C)[C@@H](Cc2ccccc2)C(=O)N[C@@H](Cc2ccc(O)cc2)C(=O)N2CCCC[C@@H]2C(=O)N[C@@H](Cc2c[nH]c3ccccc23)C(=O)N[C@@H](Cc2ccc(O)cc2)C(=O)N[C@@H](CC(C)C)C(=O)N[C@H](C(=O)NCC(=O)NCC(=O)NCC(=O)N[C@@H](CCCCNC(=O)CCOCCOCCOCCOCCNC(=O)CCCCC2SCC3NC(=O)NC32)C(N)=O)CSCC(=O)N[C@@H](Cc2cc(F)c(F)c(F)c2)C(=O)N(C)[C@@H](Cc2ccccc2)C(=O)N1C` (stereo partly shown) [Example 3626] ({CH2CO}-[Phe(3,4,5-F3)][NMeF][NMeNle][d(cisHyp)]DV[NMeF]Y[dPip]WYLCGGGK([PEG4-X30])-NH2; thioether N-13), the figure is 0.3 to 9.9 nM.

In the case of `CCCCCCCCCCC(=O)NCCCC[C@H](NC(=O)[C@H](CC(=O)O)NC(=O)CNC(=O)[C@@H]1CSCC(=O)N[C@@H](Cc2ccc(O)cc2)C(=O)N(C)[C@@H](C)C(=O)N[C@@H](CC(N)=O)C(=O)N2CCC[C@H]2C(=O)N[C@@H](CCN)C(=O)N[C@@H](CC(C)C)C(=O)N2C[C@H](O)C[C@H]2C(=O)N[C@@H](Cc2c[nH]c3ccccc23)C(=O)N[C@@H](CO)C(=O)N[C@@H](Cc2c[nH]c3ccccc23)C(=O)N(C)[C@@H](CCCC)C(=O)N(C)[C@@H](CCCC)C(=O)N[C@@H](CCCNC(=N)N)C(=O)N1)C(N)=O` [Example 11005] ({CH2CO}-Y[NMeA]NP[Dab]L[Hyp]WSW[NMeNle][NMeNle]RCGDK(Undecanoyl)-NH2; thioether N-14), the IC50 lay within 10 to 99 nM.
